Measurements as given in paper PMC12666538.

Legend:
[1] = CCClick: 37% aq formaldehyde (5 mM, 5 eq) bridges the two exocyclic methylene carbons of a Fischer base dimer (two C-C bonds), then hemin (1 eq)/air oxidative dehydrogenation, one pot; Al2O3 column; conditions: the molecule shown is the open-chain precursor, DMF, 1.0 mM, 37.0 °C, 12.0 h
[2] = CCClick: formaldehyde (10 mM) bridges the two exocyclic methylene carbons of a Fischer base dimer (Knoevenagel dehydration cyclization, two C-C bonds), then hemin (1 mM)/air oxidative dehydrogenation to cyclic trimethine cyanine; conditions: the molecule shown is the open-chain precursor, DMF, 37.0 °C, 12.0 h

Row | Structure (SMILES) | ring closure, isolated yield ([1]; 13-membered ring) [%] | ring closure, conversion by HPLC ([2]; 13-membered ring) [%] | further results
1 | C=C1N(CCCCCCN2C(=C)C(C)(C)c3c2ccc2ccccc32)c2ccc3ccccc3c2C1(C)C [FB1 -> CY-1] | 62 | 90 | 
2 | C=C1N(CCCCCCN2C(=C)C(C)(C)c3c2ccc2ccccc32)c2ccc(OCCCCCC[P+](c3ccccc3)(c3ccccc3)c3ccccc3)cc2C1(C)C.[I-] [FB2 -> CY-2] | 57 | 90 | 
3 | C=C1N(CCCCCCN2C(=C)C(C)(C)c3c2ccc2ccccc32)c2ccccc2C1(C)C [FB3 -> CY-3] | 35 | 48 | 
4 | C=C1N(CCCCCCN2C(=C)C(C)(C)c3cc(OC)ccc32)c2ccc(OC)cc2C1(C)C [FB4 -> CY-4] | 40 | 85 | 
5 | C=C1N(CCCCCCN2C(=C)C(C)(C)c3ccccc32)c2ccccc2C1(C)C [FB5 -> CY-5] | 26 | 31 | 
6 | C=C1N(CCCCCCCCCCCCN2C(=C)C(C)(C)c3ccccc32)c2ccccc2C1(C)C [FB6 -> CY-6] |  |  | ring closure, isolated yield ([1]; 19-membered ring): 29%; ring closure, conversion by HPLC ([2]; 19-membered ring): 31%
7 | C=C1N(CCCCCCCCCCCCCCCCCCN2C(=C)C(C)(C)c3ccccc32)c2ccccc2C1(C)C [FB7 -> CY-7] |  |  | ring closure, isolated yield ([1]; 25-membered ring): 22%; ring closure, conversion by HPLC ([2]; 25-membered ring): 24%
8 | C=C1N(CCOCCOCCN2C(=C)C(C)(C)c3c2ccc2ccccc32)c2ccc3ccccc3c2C1(C)C [FB8 -> CY-8] |  |  | ring closure, isolated yield ([1]; 15-membered ring): 16%; ring closure, conversion by HPLC ([2]; 15-membered ring): 34%
9 | C=C1N(CCCCCCCCCCCCN2C(=C)C(C)(C)c3c2ccc2ccccc32)c2ccc3ccccc3c2C1(C)C [FB9 -> CY-9] |  |  | ring closure, isolated yield ([1]; 19-membered ring): 44%; ring closure, conversion by HPLC ([2]; 19-membered ring): 77%
